{"source": "patent US6413912B2", "about": "“Azoline derivatives” (Syngenta Crop Protection, Inc., priority 1997, dated 2002)", "key": {"[1]": {"tested_on": "Panonychus ulmi (resistant to organophosphates und carbaryl)", "test": "Effect on Panonychus ulmi (Example B8)", "type": "in vivo", "details": "apple seedlings sprayed with 400 ppm, after 14 days", "method": "Example B8: Effect on Panonychus ulmi (resistant to organophosphates und carbaryl)\nApple seedlings are inoculated with adult females of Panonychus ulmi. After seven days, the infected plants are sprayed with an aqueous emulsion containing 400 ppm of the test compound until they are dripping wet, and cultivated in the greenhouse. After 14 days, they are evaluated. The percentage reduction of the population (% response) is determined by comparing the number of dead mites on the treated plants with those on the untreated plants."}, "Boophilus microplus": {"tested_on": "Boophilus microplus", "test": "In vitro effect on Boophilus microplus (Example B9)", "details": "ranking among test substances", "method": "Example B9: In vitro effect on Boophilus microplus\nFour test series each of 10 engorged female adults of Boophilus microplus are stuck to a plastic plate and covered for 1 hour with a wad of cottonwool soaked with an aqueous suspension or emulsion of the test substance. The test is carried out with concentrations of 100, 32, 10, 3.2, 1.0 and 0.32 ppm. The wad of cottonwool is then removed, and the ticks are incubated for 28 days for the eggs to be laid. The effect on Boophilus microplus is assessed according to the following 5 criteria:\n1. Number of dead females (immobile with black discoloration) before egg deposition;\n2. Number of ticks surviving for several days, but no eggs laid;\n3. Number of cases in which eggs are laid, but nothing is hatched;\n5. […] The compounds of formula (I) in this test show the effect described under point 4. […] Even at 1 ppm, a 60 to 90% suppression of the hatching rate is observed.\nThis test is carried out with both the BIARRA and the ULAM strain, and the results in both cases are identical."}, "[2]": {"tested_on": "Diabrotica balteata larvae", "test": "Effect on Diabrotica balteata larvae (Example B2)", "type": "in vivo", "details": "corn seedlings sprayed with 400 ppm, second stage larvae, six days later", "method": "Example B2: Effect on Diabrotica balteata larvae\nCorn seedlings are sprayed with an aqueous emulsion containing 400 ppm of active ingredient. After drying of the spray deposit, the corn seedlings are inoculated with 10 second stage larvae of Diabrotica balteata and transferred to a plastic container. Six days later they are evaluated. The percentage reduction of the population (% response) is determined by comparing the number of dead larvae on the treated plants with those on the untreated plants."}, "[3]": {"tested_on": "Heliothis virescens caterpillars", "test": "Effect on Heliothis virescens caterpillars (Example B4)", "type": "in vivo", "details": "soya plants sprayed with 400 ppm, first stage caterpillars, six days later", "method": "Example B4: Effect on Heliothis virescens caterpillars\n(§1) Young soya plants are sprayed with an aqueous emulsion containing 400 ppm of active ingredient. After drying of the spray deposit, the soya plants are inoculated with 10 first stage caterpillars of Heliothis virescens and transferred to a plastic container. Six days later they are evaluated. The percentage reduction of the population (% response) is determined by comparing the number of dead caterpillars and the extent of feeding damage on the treated plants with those on the untreated plants."}, "Heliothis virescens [4]": {"tested_on": "Heliothis virescens", "test": "Ovicidal effect on Heliothis virescens (Example B1)", "type": "in vivo", "details": "eggs immersed in 400 ppm test solution, after 6 days, vs untreated controls", "method": "Example B1: Ovicidal effect on Heliothis virescens\nEggs of Heliothis virescens laid on filter paper are immersed for a short time in an acetonic aqueous test solution containing 400 ppm of the active ingredient to be tested. After drying of the test solution, the eggs are incubated in Petri dishes. After 6 days, the percentage hatching rate of the eggs is compared with that for untreated controls (% reduction in hatching rate)."}, "Tetranychus urticae [5]": {"tested_on": "Tetranychus urticae", "test": "Effect on Tetranychus urticae (Example B3)", "type": "in vivo", "details": "bean plants, mixed population, sprayed with 400 ppm, 6 days at 25° C.", "method": "Example B3: Effect on Tetranychus urticae\nYoung bean plants are inoculated with a mixed population of Tetranychus urticae and, one day later, are sprayed with an aqueous emulsion containing 400 ppm of active ingredient. The plants are incubated for 6 days at 25° C. and then evaluated. The percentage reduction of the population (% response) is determined by comparing the number of dead eggs, larvae, and adults on the treated plants with those on the untreated plants. The instantly claimed compounds show good efficacy against Tetranychus urticae in this test."}, "Dermanyssus gallinae": {"tested_on": "Dermanyssus gallinae", "test": "In vitro effect on Dermanyssus gallinae (Example B10)", "details": "ranking among test substances", "method": "Example B10: In vitro effect on Dermanyssus gallinae\nTen engorged female mites of the genus Dermanyssus gallinae fixed on a plastic adhesive film are brought into contact with 50 μl of an aqueous suspension or emulsion of the test substance. The test is carried out with concentrations of 32, 10, 3.2, 1.0, 0.32 to 0.0001 ppm. After drying, the film is stuck onto a glass disc. This creates a kind of air bubble around each mite, the lower surface of which is formed by the glass disc and the upper surface by a bulging of the adhesive film. This bubble contains sufficient air for the mite to avoid suffocating. After 5 days, the effect of the test substance is evaluated with the aid of a stereomicroscope by assessing the effect on mortality, egg deposition, egg quality, hatching rate, pupation rate, and development of protonymphs according to the following 4 criteria:\n1. if 9 to 10 mites are dead, this indicates a lethal effect;\n3. if 2 or more mites survive and produce eggs, but no larvae hatch from these eggs and no protonymphs develop, this indicates a development-inhibiting effect;\n4. if 2 or more mites survive and lay the usual number of normal eggs, from which larvae hatch and develop into protonymphs, this indicates no activity."}, "Heliothis virescens [6]": {"tested_on": "Heliothis virescens", "test": "Ovocidal/larvicidal effect on Heliothis virescens (Example B6)", "type": "in vivo", "details": "eggs on cotton sprayed with 400 ppm, after 8 days", "from_the_text": "Example B6: Ovocidal/larvicidal effect on Heliothis virescens\nEggs of Heliothis virescens laid on cotton are sprayed with an aqueous emulsion containing 400 ppm of active ingredient. After 8 days, the percentage hatching rate of the eggs and the survival rate of the caterpillars are compared with those for untreated controls (% reduction of population)"}, "[7]": {"tested_on": "Plutella xylostella caterpillars", "test": "Effect on Plutella xylostella caterpillars (Example B5)", "type": "in vivo", "details": "cabbage plants sprayed with 400 ppm, third stage caterpillars, three days later", "method": "Example B5: Effect on Plutella xylostella caterpillars\nas §1, with “cabbage” for “soya”, “third” for “first”, “Plutella xylostella” for “Heliothis virescens”, “Three” for “Six”"}, "Tetranychus urticae [8]": {"tested_on": "Tetranychus urticae", "test": "Ovicidal effect on Tetranychus urticae (Example B7)", "type": "in vivo", "details": "bean plants colonized with eggs sprayed with 400 ppm, 6 days at 25° C.", "method": "Example B7: Ovicidal effect on Tetranychus urticae\nYoung bean plants are inoculated with females of Tetranychus urticae, which are removed again after 24 hours. The plants colonized with eggs are sprayed with an aqueous emulsion containing 400 ppm of active ingredient. The plants are incubated for 6 days at 25° C. and then evaluated. The percentage reduction of the population (% response) is determined by comparing the number of dead eggs, larvae, and adults on the treated plants with those on the untreated plants."}}, "data": [{"smiles": "Fc1cccc(F)c1C1=NC(c2ccc(-c3ccc(C(F)(F)F)cc3)cc2)CO1", "note": "(stereo not shown) [Example H1-5, 2-(2,6-Difluorophenyl)-4-(4′-trifluoromethylbiphenyl-4-yl)-4,5-dihydro-oxazole]", "values": [{"measurement": "percentage reduction of the population (% response)", "setting": "[1]", "value": "more than 80%"}, {"measurement": "activity compared with the other test substances", "setting": "Boophilus microplus", "value": "most active test substance"}, {"measurement": "percentage reduction of the population (% response)", "setting": "[2]", "value": "more than 80%"}, {"measurement": "percentage reduction of the population (% response)", "setting": "[3]", "value": "more than 80%"}, {"measurement": "% reduction in hatching rate", "setting": "Heliothis virescens [4]", "value": "more than 80%"}, {"measurement": "percentage reduction of the population (% response)", "setting": "Tetranychus urticae [5]", "value": "more than 80%"}, {"measurement": "activity compared with the other test substances", "setting": "Dermanyssus gallinae", "value": "most active test substance"}, {"measurement": "% reduction of population (hatching rate of eggs and survival rate of caterpillars)", "setting": "Heliothis virescens [6]", "value": "more than 80%"}, {"measurement": "percentage reduction of the population (% response)", "setting": "[7]", "value": "more than 80%"}, {"measurement": "percentage reduction of the population (% response)", "setting": "Tetranychus urticae [8]", "value": "more than 80%"}]}]}
